Reference: patent US20150374680A1, “POCHOXIME CONJUGATES USEFUL FOR THE TREATMENT OF HSP90 RELATED PATHOLOGIES” (UNIVERSITE DE STRASBOURG, priority 2010, published 2015)
Where two headings read alike, the source gives them in different places.

What was measured:
[1] = target: T1, human HSP90α (Homo sapiens, UniProt P07900); assay: biochemical; type: binding
T1 construct: purchased Stressgen SPP-776F

[2] = test system: Her-2 in SkBr3 cells; assay: Her-2 depletion in SkBr3 cells (pharmacodynamic marker of cellular efficacy); type: cell-based; conditions: Homo sapiens, SK-BR-3; SkBr3 cells treated with the inhibitor overnight; read-out: PD (μM), pharmacodynamic EC50, Her-2 depletion
Protocol: FIG. 2. Cellular efficacy of pochoximes A1B5C1D1 (IC50). Depletion of Her-2 in SkBr3 cells were treated treated with the inhibitor for 18 h. […]

[3] = competition assay, read-out: Measure KD against human HSP90α

Row | SMILES | Kd ([1]; Measure KD against human HSP90α (nM)) [nM] | Kd [1, 3] [nM] | EC50 [1] [nM] | EC50 [2] [µM]
1 | CC1CC=CC(NC(=O)CSC2OC(CO)C(O)C(O)C2O)CC=CC(=NOCC(=O)N2CCCCC2)Cc2cc(O)cc(O)c2C(=O)O1 (stereo not shown) [As-14(6-R)] | 90 | – | – | –
2 | CC(=O)N[C@H]1/C=C/C[C@@H](C)OC(=O)c2c(O)cc(O)cc2CC(=NOCC(=O)N2CCCCC2)/C=C/C1 [As-15(6-R)] | – | 343 | – | –
3 | CC1CC=CCCC=CC(=NOCC(=O)N2CCCCC2)Cc2cc(O)cc(O)c2C(=O)O1 (stereo not shown) [Compound A1B1C1D1] | – | – | 34 | ≤ 5
4 | CCN(CC)C(=O)CON=C1C=CCCC=CCC(C)OC(=O)c2c(O)cc(O)cc2C1 (stereo not shown) [Compound A1B1C1D18] | – | – | 540 | –
5 | CCCC1CC=CCCC=CC(=NOCC(=O)N2CCCCC2)Cc2cc(O)cc(O)c2C(=O)O1 (stereo not shown) [Compound A1B1C2D1] | – | – | 588 | > 10
6 | CC1CCCCN1C(=O)CON=C1C=CCCC=CCCOC(=O)c2c(O)cc(O)cc2C1 (stereo not shown) [Compound A1B1C4D2] | – | – | 886 | –
7 | CC1CCCN(C(=O)CON=C2C=CCCC=CCCOC(=O)c3c(O)cc(O)cc3C2)C1 (stereo not shown) [Compound A1B1C4D3] | – | – | 60 | ≤ 0.1
8 | CC1CCN(C(=O)CON=C2C=CCCC=CCCOC(=O)c3c(O)cc(O)cc3C2)CC1 [Compound A1B1C4D4] | – | – | 70 | ≤ 0.5
9 | CCC1CCCCN1C(=O)CON=C1C=CCCC=CCCOC(=O)c2c(O)cc(O)cc2C1 (stereo not shown) [Compound A1B1C4D5] | – | – | 243 | < 1
10 | CC1CCCC(C)N1C(=O)CON=C1C=CCCC=CCCOC(=O)c2c(O)cc(O)cc2C1 (stereo not shown) [Compound A1B1C4D6] | – | – | 238 | < 5
11 | O=C1OCCC=CCCC=CC(=NOCC(=O)N2CCC(c3ccccc3)CC2)Cc2cc(O)cc(O)c21 [Compound A1B1C4D7] | – | – | 2240 | > 10
12 | O=C1OCCC=CCCC=CC(=NOCC(=O)N2CCC(Cc3ccccc3)CC2)Cc2cc(O)cc(O)c21 [Compound A1B1C4D8] | – | – | 5760 | > 10
13 | O=C1OCCC=CCCC=CC(=NOCC(=O)N2CC=CCC2)Cc2cc(O)cc(O)c21 [Compound A1B1C4D9] | – | – | 22 | ≤ 0.5
14 | O=C1OCCC=CCCC=CC(=NOCC(=O)N2CCOCC2)Cc2cc(O)cc(O)c21 [Compound A1B1C4D10] | – | – | 124 | ≤ 0.5
15 | O=C1OCCC=CCCC=CC(=NOCC(=O)N2CCSCC2)Cc2cc(O)cc(O)c21 [Compound A1B1C4D11] | – | – | 70 | ≤ 0.5
16 | O=C1OCCC=CCCC=CC(=NOCC(=O)N2CCNCC2)Cc2cc(O)cc(O)c21 [Compound A1B1C4D12] | – | – | 640 | ≤ 5
17 | CN1CCN(C(=O)CON=C2C=CCCC=CCCOC(=O)c3c(O)cc(O)cc3C2)CC1 [Compound A1B1C4D13] | – | – | > 10000 | –
18 | CC1CN(C(=O)CON=C2C=CCCC=CCCOC(=O)c3c(O)cc(O)cc3C2)CC(C)O1 (stereo not shown) [Compound A1B1C4D14] | – | – | 337 | ≤ 5
19 | O=C1OCCC=CCCC=CC(=NOCC(=O)N2CC=CC2)Cc2cc(O)cc(O)c21 [Compound A1B1C4D15] | – | – | 128 | ≤ 1

Row | SMILES | Kd ([1]; Measure KD against human HSP90α (nM)) [nM] | Kd [1, 3] [nM] | EC50 [1] [nM] | EC50 [2] [µM]
20 | CC1C=CC(C)N1C(=O)CON=C1C=CCCC=CCCOC(=O)c2c(O)cc(O)cc2C1 (stereo not shown) [Compound A1B1C4D16] | – | – | 119 | ≤ 1
21 | O=C1OCCC=CCCC=CC(=NOCC(=O)N2CCCC2)Cc2cc(O)cc(O)c21 [Compound A1B1C4D17] | – | – | 219 | ≤ 0.5
22 | CCN(CC)C(=O)CON=C1C=CCCC=CCCOC(=O)c2c(O)cc(O)cc2C1 [Compound A1B1C4D18] | – | – | 196 | ≤ 1
23 | CC(C)CN(CC(C)C)C(=O)CON=C1C=CCCC=CCCOC(=O)c2c(O)cc(O)cc2C1 [Compound A1B1C4D19] | – | – | 94 | ≤ 5
24 | CC(C)N(C(=O)CON=C1C=CCCC=CCCOC(=O)c2c(O)cc(O)cc2C1)C(C)C [Compound A1B1C4D20] | – | – | 162 | ≤ 1
25 | O=C1OCCC=CCCC=CC(=NOCC(=O)N(Cc2ccccc2)Cc2ccccc2)Cc2cc(O)cc(O)c21 [Compound A1B1C4D21] | – | – | 2990 | > 10
26 | O=C(CON=C1C=CCCC=CCCOC(=O)c2c(O)cc(O)cc2C1)NCc1ccccc1 [Compound A1B1C4D22] | – | – | 57 | ≤ 1
27 | O=C1OCCC=CCCC=CC(=NOCC(=O)N2CCCCCC2)Cc2cc(O)cc(O)c21 [Compound A1B1C4D23] | – | – | 140 | –
28 | O=C(CON=C1C=CCCC=CCCOC(=O)c2c(O)cc(O)cc2C1)NC1CCCCC1 [Compound A1B1C4D24] | – | – | 155 | ≤ 5
29 | CCCN(CCC)C(=O)CON=C1C=CCCC=CCCOC(=O)c2c(O)cc(O)cc2C1 [Compound A1B1C4D25] | – | – | 116 | ≤ 1
30 | COC(=O)CON=C1C=CCCC=CCCOC(=O)c2c(O)cc(O)cc2C1 [Compound A1B1C4D26] | – | – | 372 | ≤ 10
31 | CCN(CC)C(=O)CON=C1C=C(C)CCC=CCC(C)OC(=O)c2c(O)cc(O)cc2C1 (stereo not shown) [Compound A1B3C1D18] | – | – | 200 | ≤ 1
32 | CCCC1CC=CCCC(C)=CC(=NOCC(=O)N2CCCCC2)Cc2cc(O)cc(O)c2C(=O)O1 (stereo not shown) [Compound A1B3C2D1] | – | – | 196 | ≤ 1
33 | CCCC1CC=CCCC(C)=CC(=NOCC(=O)N(CC)CC)Cc2cc(O)cc(O)c2C(=O)O1 (stereo not shown) [Compound A1B3C2D18] | – | – | 4660 | > 10
34 | CC1=CC(=NOCC(=O)N2CCCCC2)Cc2cc(O)cc(O)c2C(=O)OCCC=CCC1 [Compound A1B3C4D1] | – | – | 46 | ≤ 0.5
35 | CC1C=CCC(C)OC(=O)c2c(O)cc(O)cc2CC(=NOCC(=O)N2CCCCC2)C=CC1 (stereo not shown) [Compound A1B4C1D1] | – | – | 32 | –
36 | CCCC1CC=CC(C)CC=CC(=NOCC(=O)N2CCCCC2)Cc2cc(O)cc(O)c2C(=O)O1 (stereo not shown) [Compound A1B4C2D1] | – | – | 811 | –
37 | CC1C=CCCOC(=O)c2c(O)cc(O)cc2CC(=NOCC(=O)N2CCCCC2)C=CC1 (stereo not shown) [Compound A1B4C4D1] | – | – | 21 | ≤ 0.5
38 | CC1CC=CC(O)CC=CC(=NOCC(=O)N2CCCCC2)Cc2cc(O)cc(O)c2C(=O)O1 (stereo not shown) [Compound A1B5C1D1] | – | – | 20 | –

Row | SMILES | Kd ([1]; Measure KD against human HSP90α (nM)) [nM] | Kd [1, 3] [nM] | EC50 [1] [nM] | EC50 [2] [µM]
39 | CC1CC=CCCC=CC(=NOCC(=O)N2CCCCC2)Cc2c(Cl)c(O)cc(O)c2C(=O)O1 (stereo not shown) [Compound A2B1C1D1] | – | – | 39 | –
40 | CCCC1CC=CCCC=CC(=NOCC(=O)N2CCCCC2)Cc2c(Cl)c(O)cc(O)c2C(=O)O1 (stereo not shown) [Compound A2B1C2D1] | – | – | 96 | ≤ 5
41 | O=C1NCCC=CCCC=CC(=NOCC(=O)N2CCCCC2)Cc2c(Cl)c(O)cc(O)c21 [Compound A2B1C3D1] | – | – | 198 | ≤ 1
42 | [N-]=[N+]=NCC1CC=CCCC=CC(=NOCC(=O)N2CCCCC2)Cc2c(Cl)c(O)cc(O)c2C(=O)O1 (stereo not shown) [Compound A2B1C7D1] | – | – | 79 | –
43 | C=CC1=CCCC=CC(=NOCC(=O)N2CCCCC2)Cc2c(Cl)c(O)cc(O)c2C(=O)OCC1 [Compound A2B1C8D1] | – | – | 432 | ≤ 1
44 | CCCC1CC=CCCC(C)=CC(=NOCC(=O)N(CC)CC)Cc2c(Cl)c(O)cc(O)c2C(=O)O1 (stereo not shown) [Compound A2B3C2D18] | – | – | 900 | > 10
45 | CC1C=CCC(C)OC(=O)c2c(O)cc(O)c(Cl)c2CC(=NOCC(=O)N2CCCCC2)C=CC1 (stereo not shown) [Compound A2B4C1D1] | – | – | 154 | ≤ 1
46 | CCCC1CC=CC(C)CC=CC(=NOCC(=O)N2CCCCC2)Cc2c(Cl)c(O)cc(O)c2C(=O)O1 (stereo not shown) [Compound A2B4C2D1] | – | – | 1750 | ≤ 10
47 | CC1C=CCCOC(=O)c2c(O)cc(O)c(Cl)c2CC(=NOCC(=O)N2CCCCC2)C=CC1 (stereo not shown) [Compound A2B4C4D1] | – | – | 170 | ≤ 5
48 | CC1C=CCCCOC(=O)c2c(O)cc(O)c(Cl)c2CC(=NOCC(=O)N2CCCCC2)C=CC1 (stereo not shown) [Compound A2B4C5D1] | – | – | 1720 | > 10
49 | CC1CC=CC(O)CC=CC(=NOCC(=O)N2CCCCC2)Cc2c(Cl)c(O)cc(O)c2C(=O)O1 (stereo not shown) [Compound A2B5C1D1] | – | – | 10 | –
50 | O=C1OCCC=CC(O)CC=CC(=NOCC(=O)N2CCCCC2)Cc2c(Cl)c(O)cc(O)c21 (stereo not shown) [Compound A2B5C4D1] | – | – | 18 | –
51 | C[C@@H]1C/C=C/[C@H](N)C/C=C/C(=NOCC(=O)N2CCCCC2)Cc2cc(O)cc(O)c2C(=O)O1 [aminopochoxime E] | – | 229 | – | –
52 | CC1CC=CC(N)CC=CC(=NOCC(=O)N2CCCCC2)Cc2cc(O)cc(O)c2C(=O)O1 (stereo not drawn) [epi-aminopochoxime E] | – | 34 | – | –
53 | C[C@@H]1C/C=C/[C@@H](O)C/C=C/C(=NOCC(=O)N2CCCCC2)Cc2c(Cl)c(O)cc(O)c2C(=O)O1 [epi-pochoxime E] | – | 38 | – | –
54 | C[C@@H]1C/C=C/[C@@H](O)C/C=C/C(=NOCC(=O)N2CCCCC2)Cc2cc(O)cc(O)c2C(=O)O1 [epi-pochoxime F] | – | 14 | – | –
55 | CC1CC=CCCC=CC(=NOCC(=O)N2CCCCC2)Cc2c(Cl)c(O)cc(O)c2C(=O)O1 (stereo not shown) [pochoxime D] | – | 22 | – | –
56 | C[C@@H]1C/C=C/[C@H](O)C/C=C/C(=NOCC(=O)N2CCCCC2)Cc2c(Cl)c(O)cc(O)c2C(=O)O1 [pochoxime E] | – | 34 | – | –
57 | C[C@@H]1C/C=C/[C@H](O)C/C=C/C(=NOCC(=O)N2CCCCC2)Cc2cc(O)cc(O)c2C(=O)O1 [pochoxime F] | – | 22 | – | –
